Data on eight molecules can be found in US5945407A, “Methods and compositions using butyrate esters of threitol” (Vertex Pharmaceuticals, Incorporated, priority 1998, dated 1999).

SMILES strings stand for the structures. Some results are limits rather than exact numbers.

Series [1] in a line: Pharmacokinetic variability of serum butyrate (standard deviation of a parameter such as Cmax or AUC divided by its mean). It counts as in vivo. The source says: Pharmacokinetic variability is the measure of differences in the serum butyrate concentrations between different patients administered the same amount of butyrate esters of threitol. Pharmacokinetic variability is quantified by dividing the standard deviation for a given parameter, such as Cmax or AUC, by the mean value of that parameter, in a series of patients given dose the same dosage of butyrate ester of threitol.

Series [2] in a line: Oral bioavailability and sustenance of plasma concentrations of butyric acid in rats after oral gavage. The series is classed as in vivo, rats (Sprague Dawley). The note with it: rat; for AUC: butyric acid in plasma, oral gavage, mean ± SD. As for the experimental part: We evaluated oral bioavailability and sustenance of plasma concentrations of butyric acid in rats receiving tetrabutyrate esters of threitol and tributyrin by oral gavage.
This assay was carried out according to the protocol described in Daniel et al., Clinca Chimica Acta., 181, pp. 255-64 (1989); Planchon et al., J. Pharm. Sci., 82, pp. 1046-48 (1993); Pouillart et al., J. Pharm Sci., 81, pp. 241-44 (1992). Each compound was tested in five to six rats (Sprague Dawley; Harlan Labs, Inc.) weighing approximately 300 grams each. In that table, data are expressed as mean ± standard deviation (range) and were compared using the unpaired Student's t-test.

A further series relates to leukemia patients. Particulars: by inducing cell differentiation; cited from earlier work.
A short description of another series: in vitro. Particulars: cell culture.
Series [3] concerns Cultured Erythroleukemic Cells. Particulars: in vitro; cited from earlier work.
For series [4] the following is noted: leukemia patients; continuous infusions of sodium butyrate; cited from earlier work.
In series [5] the test system is tumor and leukemia in mice. Particulars: cited from earlier work.
For a further series, the system named is fetal hemoglobin. Particulars: sickle cell anemia patients; cited from earlier work.

In the case of `CCCC(=O)OC[C@H](OC(=O)CCC)[C@@H](COC(=O)CCC)OC(=O)CCC` [tetrabutyrate ester of mesothreitol], the pharmacokinetic variability in series [1] (in vivo) is given as 35-40%. In the case of `CCCC(=O)OCC(COC(=O)CCC)OC(=O)CCC` [tributyrin], the AUC in series [2] (3.0 gm/kg) was determined as 1590 ± 930 µM·h. In series [2] (oral), the “oral bioavailability (to provide therapeutic plasma levels of butyric acid)” value is given as “orally bioavailable”. Further, in series [2] (oral, tetrabutyrate esters of threitol vs tributyrin), the “variability of release of butyric acid in vivo” value is listed as “more variable”. The pharmacokinetic variability in series [1] (standard deviation / mean of a parameter such as Cmax or AUC) worked out at 70%.

`CCCC(=O)OC[C@@H](OC(=O)CCC)[C@@H](COC(=O)CCC)OC(=O)CCC` [d-threitol tetrabutyrate ester]: the AUC in series [2] (2.8 gm/kg) stood at 900 ± 260 µM·h.

In the case of `CCCC(=O)O` [butyric acid], the “effect in leukemia patients” value in the series on leukemia patients is “promising effects”. In addition, the MCC in the series “in vitro” is more than 3 mM. Further, the cell differentiation result in series [3] is recorded as “induces cell differentiation”.

For `CCCC(=O)[O-].[Na+]` [sodium butyrate], the “plasma half-life of butyric acid” value in series [4] is 6 min. For the molecule `CCCC(=O)O` [arginine butyrate], the “anti-tumor and anti-leukemia effects” value in series [5] was “anti-tumor and anti-leukemia effects”. In the case of `NC(=O)NO` [hydroxyurea], in the series with fetal hemoglobin, the fetal hemoglobin production entry is on record as “stimulates fetal hemoglobin production” and the sickling crisis result is recorded as “reduces sickling crisis”. `CCCC(=O)OC[C@H](OC(=O)CCC)[C@H](COC(=O)CCC)OC(=O)CCC` [l-threitol tetrabutyrate ester] had an AUC in series [2] (2.4 gm/kg) of 1200 ± 400 µM·h.

What is called AUC is concentration integrated over time. Low values mean low exposure, high ones high exposure.
